Ten molecules from ChEMBL document CHEMBL1201862, “PubChem BioAssay data set” (2004) can be followed below.

Among the test systems are COLO 205; HCC 2998; HL-60; HOP-62; HOP-92; HT-29; K562; MCF7; Malme-3M; OVCAR-3; OVCAR-5; OVCAR-8; RPMI-8226; SF-539; SK-MEL-28; SNB-19; SNB-75; UACC-257; UACC-62; UO-31.
Holding throughout (assay): DTP human tumour cell line panel, 48 h

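Five concentrations, 48 hours, 96-well plates. The concentration for 50% growth inhibition is given as GI50.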 Calls of active or inactive are those of the source. Rule as the data show it: active = GI50 up to about 1.1 µM and inactive = higher.

Consider `CC(C)(C)OC(=O)NC(Cc1ccc(OCc2ccccc2)cc1)C(=O)NC(COCc1ccccc1)C(=O)Oc1c(Cl)c(Cl)c(Cl)c(Cl)c1Cl` (stereo not given), for which the GI50 in the experiment with COLO 205 was 18.7 µM (inactive); in the experiment with HCC 2998, 20.1 µM (inactive); in the experiment with HL-60 it was 59.8 µM (inactive); with HOP-62, 16.4 µM (inactive); with HOP-92, 13.8 µM (inactive); with HT-29, 25.6 µM (inactive). Further, the GI50 with K562 was > 100 µM (inactive); with MCF7, 22.4 µM (inactive); in the experiment on Malme-3M, 25.1 µM (inactive); in the experiment on OVCAR-3, 14.9 µM (inactive); with OVCAR-5 it was 25.5 µM (inactive); with OVCAR-8, 21.5 µM (inactive). Also, the GI50 in the experiment with RPMI-8226 was 37.7 µM (inactive); with SF-539, 15.5 µM (inactive); with SK-MEL-28, 25.1 µM (inactive); in the experiment with SNB-19, 29.3 µM (inactive); in the experiment on SNB-75 it was 29.6 µM (inactive); with UACC-257, 27.6 µM (inactive). Also, the GI50 in the experiment with UACC-62 is 16.2 µM (inactive); with UO-31, 17 µM (inactive).
Turning to `S=P1(N2CCCCC2)Oc2ccc3ccccc3c2-c2c(ccc3ccccc23)O1`, the GI50 is > 100 µM (inactive) in the experiment with COLO 205; > 100 µM (inactive) in the experiment on HCC 2998; > 100 µM (inactive) with HL-60; > 100 µM (inactive) with HOP-62; 92.9 µM (inactive) in the experiment on HOP-92; > 76.2 µM (inactive) with HT-29. Further, the GI50 in the experiment on K562 is 85.7 µM (inactive); in the experiment on MCF7 it was > 85.3 µM (inactive); with Malme-3M, > 46 µM (inactive); with OVCAR-3, 34.9 µM (inactive); with OVCAR-5 it was > 100 µM (inactive); with OVCAR-8, 64.4 µM (inactive). In addition, the GI50 was > 91.2 µM (inactive) with RPMI-8226; 71.1 µM (inactive) with SF-539; > 100 µM (inactive) in the experiment with SK-MEL-28; > 100 µM (inactive) in the experiment on SNB-19; 31.8 µM (inactive) with SNB-75; > 100 µM (inactive) with UACC-257. The figures for the GI50 in the experiment on UACC-62 and with UO-31 were 94.8 µM (inactive) and > 80.7 µM (inactive), respectively.
In the case of `S=C(Cc1ccc2c(c1)Sc1ccccc1O2)N1CCOCC1`, the GI50 with COLO 205 was 36.6 µM (inactive); in the experiment on HCC 2998, 86.1 µM (inactive); in the experiment with HL-60 it was 16 µM (inactive); in the experiment with HOP-62, > 100 µM (inactive); with HOP-92, 30.6 µM (inactive); in the experiment on HT-29, 24.6 µM (inactive). Also, the GI50 was > 100 µM (inactive) with K562; 36.7 µM (inactive) with MCF7; 23.8 µM (inactive) with Malme-3M; 49.5 µM (inactive) in the experiment with OVCAR-3; > 100 µM (inactive) with OVCAR-5; 30.5 µM (inactive) with OVCAR-8. Further, the GI50 in the experiment with RPMI-8226 is 34.8 µM (inactive); with SF-539 it was 21.2 µM (inactive); in the experiment with SK-MEL-28, 59.7 µM (inactive); in the experiment with SNB-19, > 100 µM (inactive); with SNB-75, 18.7 µM (inactive); with UACC-257, 31.4 µM (inactive). Further, the GI50 with UACC-62 is 28.6 µM (inactive); with UO-31, 26.1 µM (inactive).
Take `O=c1[nH]nc(-c2ccccc2)n1/N=C/c1ccccc1Cl`: the GI50 in the experiment with COLO 205 is 37.1 µM (inactive); in the experiment with HCC 2998, 36.2 µM (inactive); in the experiment on HL-60, 19.5 µM (inactive); in the experiment with HOP-62, 29.4 µM (inactive); in the experiment with HOP-92, 67.1 µM (inactive); with HT-29 it was 28.9 µM (inactive). Moreover, the GI50 with K562 was 31.3 µM (inactive); with MCF7, 31.8 µM (inactive); in the experiment on Malme-3M, 20.3 µM (inactive); in the experiment with OVCAR-3, 23.8 µM (inactive); in the experiment with OVCAR-5 it was > 100 µM (inactive); in the experiment with OVCAR-8, 39.1 µM (inactive). Besides, the GI50 in the experiment with RPMI-8226 was 21.1 µM (inactive); in the experiment with SF-539, 39.3 µM (inactive); with SK-MEL-28, 52 µM (inactive); in the experiment on SNB-19 it was > 100 µM (inactive); in the experiment on SNB-75 it was 36.5 µM (inactive); with UACC-257, 64 µM (inactive). For the same molecule, the GI50 in the experiment on UACC-62 is 20 µM (inactive); in the experiment with UO-31 it was 42.8 µM (inactive).
Take `COc1c2c(nc3ccccc13)-c1cc3c(c(=O)n1C2)COC(=O)C3(O)CC(=O)N1CCOCC1` (stereo not given): the GI50 was 27.8 µM (inactive) in the experiment with COLO 205; 18.2 µM (inactive) in the experiment on HCC 2998; 2.72 µM (inactive) with HL-60; 1 µM (active) with HOP-62; 9.25 µM (inactive) in the experiment with HOP-92; 17.3 µM (inactive) with HT-29. The GI50 with K562 is 4.85 µM (inactive); in the experiment on MCF7 it was 1.06 µM (active); in the experiment on Malme-3M it was 16.3 µM (inactive); with OVCAR-3, 19.4 µM (inactive); with OVCAR-5, 11.4 µM (inactive); with OVCAR-8 it was 3.58 µM (inactive). For the same molecule, the GI50 in the experiment on RPMI-8226 was 6.43 µM (inactive); in the experiment on SF-539, 0.964 µM (active); in the experiment with SK-MEL-28 it was 17 µM (inactive); with SNB-19 it was 1.27 µM (inactive); with SNB-75, 1.35 µM (inactive); with UACC-257, 19 µM (inactive). The figures for the 50% growth inhibitory concentration (GI50) in the experiment on UACC-62 and with UO-31 were 0.76 µM (active) and 7.16 µM (inactive), respectively.
Consider `C=C1CC(C)(COc2ccc3c(C)c(C)c(=O)oc3c2C)OC1=O` (stereo not given), for which the concentration for 50% growth inhibition (GI50) in the experiment on COLO 205 is 1.06 µM (active); in the experiment on HCC 2998, 1.76 µM (inactive); in the experiment with HL-60, 0.19 µM (active); in the experiment with HOP-62 it was 12.5 µM (inactive); with HOP-92, 1.26 µM (inactive); in the experiment with HT-29, 2.17 µM (inactive). Further, the GI50 was 0.811 µM (active) in the experiment with K562; 1.29 µM (inactive) with MCF7; 1.39 µM (inactive) in the experiment with Malme-3M; 3.3 µM (inactive) with OVCAR-3; 6.27 µM (inactive) in the experiment with OVCAR-5; 2.11 µM (inactive) with OVCAR-8. The concentration for 50% growth inhibition (GI50) in the experiment on RPMI-8226 is 0.594 µM (active); with SF-539, 2.24 µM (inactive); with SK-MEL-28, 2.07 µM (inactive); in the experiment on SNB-19 it was 13.4 µM (inactive); in the experiment with SNB-75 it was 3.66 µM (inactive); with UACC-257 it was 2.09 µM (inactive). The GI50 is 1.27 µM (inactive) with UACC-62 and 9.18 µM (inactive) in the experiment with UO-31.
On to `Cc1nc2n(c1/C=C1/C(=O)Nc3cccc(Cl)c31)CCS2`, for which the GI50 in the experiment with COLO 205 is > 100 µM (inactive); in the experiment on HCC 2998, > 100 µM (inactive); with HL-60, > 100 µM (inactive); in the experiment with HOP-62, 24 µM (inactive); in the experiment on HOP-92 it was 20.7 µM (inactive); in the experiment with HT-29 it was > 100 µM (inactive). For the same molecule, the GI50 with K562 is 20.3 µM (inactive); with MCF7, 14.2 µM (inactive); in the experiment on Malme-3M, 50.2 µM (inactive); in the experiment on OVCAR-3, > 100 µM (inactive); in the experiment with OVCAR-5, > 100 µM (inactive); in the experiment with OVCAR-8, 25.7 µM (inactive). For the same molecule, the GI50 was > 100 µM (inactive) in the experiment on RPMI-8226; 19 µM (inactive) in the experiment on SF-539; > 100 µM (inactive) in the experiment on SK-MEL-28; 27.2 µM (inactive) in the experiment on SNB-19; 17.5 µM (inactive) in the experiment on SNB-75; > 100 µM (inactive) with UACC-257. Moreover, the GI50 is 33.6 µM (inactive) in the experiment with UACC-62 and 29.8 µM (inactive) with UO-31.
Consider `COC(=O)Cc1c([C@H]2[C@H](CC(=O)OC)c3ccccc3N2C(=O)C(F)(F)F)[nH]c2ccccc12`, for which the GI50 in the experiment on COLO 205 was 18.2 µM (inactive); in the experiment with HCC 2998 it was 32.1 µM (inactive); in the experiment on HL-60, 40.3 µM (inactive); in the experiment on HOP-62, 29 µM (inactive); in the experiment with HOP-92, 32.3 µM (inactive); with HT-29, 29.3 µM (inactive). In addition, the GI50 in the experiment with K562 was 11.1 µM (inactive); in the experiment with MCF7, 26 µM (inactive); with Malme-3M, 29.9 µM (inactive); in the experiment with OVCAR-3, 15.9 µM (inactive); in the experiment on OVCAR-5, 18.9 µM (inactive); in the experiment with OVCAR-8, 32.5 µM (inactive). Further, the GI50 is 17.7 µM (inactive) in the experiment with RPMI-8226; 29.5 µM (inactive) in the experiment on SF-539; 34.5 µM (inactive) in the experiment with SK-MEL-28; 54.3 µM (inactive) with SNB-19; 29.2 µM (inactive) in the experiment on SNB-75; 29.1 µM (inactive) with UACC-257. Also, the GI50 in the experiment with UACC-62 is 13.6 µM (inactive); in the experiment on UO-31, 33.6 µM (inactive).
Take `CCCCCCCCCCCC(=O)OCC(C[As](=O)(O)O)OC(=O)CCCCCCCCCCC` (stereo not given): the GI50 with COLO 205 was 7.67 µM (inactive); with HCC 2998, 6.22 µM (inactive); in the experiment on HL-60, 2.61 µM (inactive); in the experiment with HOP-62, 26.9 µM (inactive); in the experiment with HOP-92 it was 1.88 µM (inactive); with HT-29, 7.62 µM (inactive). Further, the GI50 in the experiment with K562 is 5.32 µM (inactive); in the experiment with MCF7, 3.93 µM (inactive); in the experiment with Malme-3M it was 2.48 µM (inactive); in the experiment with OVCAR-3 it was 8.81 µM (inactive); in the experiment on OVCAR-5, 18.1 µM (inactive); in the experiment with OVCAR-8, 11.7 µM (inactive). Further, the GI50 was 7.4 µM (inactive) with RPMI-8226; 7.89 µM (inactive) in the experiment on SF-539; 2.96 µM (inactive) in the experiment with SK-MEL-28; 3.28 µM (inactive) in the experiment on SNB-19; 6.95 µM (inactive) in the experiment with SNB-75; 7.52 µM (inactive) with UACC-257. The GI50 in the experiment on UACC-62 is 2.03 µM (inactive); in the experiment on UO-31, 12.4 µM (inactive).
As for `CC1(c2nc3ccccc3[nH]2)CCC(C#N)C(C)(C)O1` (stereo not given), the GI50 with COLO 205, with HCC 2998, in the experiment with HL-60, in the experiment with HOP-62, in the experiment with HOP-92 and in the experiment with HT-29 was > 100 µM (inactive) each time. For the same molecule, the GI50 in the experiment on K562, with MCF7, with Malme-3M, in the experiment on OVCAR-3, in the experiment with OVCAR-5 and in the experiment on OVCAR-8 was > 100 µM (inactive) throughout. For the same molecule, the GI50 in the experiment with RPMI-8226, with SF-539, in the experiment with SK-MEL-28, in the experiment on SNB-19, with SNB-75 and in the experiment with UACC-257 was > 100 µM (inactive) throughout. In addition, the GI50 in the experiment on UACC-62 was > 100 µM (inactive); in the experiment on UO-31 it was 36 µM (inactive).
